Assay results from ChEMBL document CHEMBL1152104, “Synthesis of partially non-peptidic neurotensin mimetics” (Bioorg Med Chem Lett, 1994).

How the values were obtained:
[1] = biological target: T1, Neurotensin receptor type 1 (Rattus norvegicus, UniProt P20789); test: Equilibrium dissociation constant at cloned rat Neurotensin receptor (NT) receptor expressed in CHO-K1 cells; 0.3-0.7 uM; assay type: cell-based
CHO-K1 = test: Effect on PI turnover in intact CHO-K1 cells; assay type: functional, cell-based; conditions: Cricetulus griseus
Homo sapiens = species on record: Homo sapiens; test: Concentration required to stimulate cGMP production in NIE-115 neuroblastoma cells at higher doses in 10-100 uM range; assay type: functional, cell-based
[2] = biological target: T1, Neurotensin receptor type 1; test: Equilibrium dissociation constant at cloned rat Neurotensin receptor (NT) receptor

T1 sequence (P20789 whole entry): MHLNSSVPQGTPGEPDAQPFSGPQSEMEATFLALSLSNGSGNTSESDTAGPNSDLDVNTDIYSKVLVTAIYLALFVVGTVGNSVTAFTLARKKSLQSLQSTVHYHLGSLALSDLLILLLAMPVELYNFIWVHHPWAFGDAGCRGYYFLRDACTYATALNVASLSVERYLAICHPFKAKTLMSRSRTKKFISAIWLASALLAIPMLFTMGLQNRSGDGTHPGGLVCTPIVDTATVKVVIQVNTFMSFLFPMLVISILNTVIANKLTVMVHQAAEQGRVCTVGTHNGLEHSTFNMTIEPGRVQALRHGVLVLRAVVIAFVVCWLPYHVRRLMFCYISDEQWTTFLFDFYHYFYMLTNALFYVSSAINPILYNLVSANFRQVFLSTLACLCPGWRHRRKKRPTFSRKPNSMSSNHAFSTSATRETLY

CC[C@H](C)[C@H](NC(=O)[C@H](Cc1ccc(O)cc1)NC(=O)c1[nH]c2c(OCCCCCN)cccc2c1CCCCCCN)C(=O)N[C@@H](CC(C)C)C(=O)O
Kd [1]: 300 nM | EC50 (CHO-K1): ~1300 nM

CC[C@H](C)[C@H](NC(=O)[C@H](Cc1c[nH]c2ccccc12)NC(=O)c1[nH]c2c(OCCCCCN=C(N)N)cccc2c1CCCCCCN=C(N)N)C(=O)N[C@@H](CC(C)C)C(=O)O
Kd [1]: 300 nM

CC[C@H](C)[C@H](NC(=O)[C@H](Cc1ccc(O)cc1)NC(=O)c1[nH]c2c(OCCCCCN=C(N)N)cccc2c1CCCCCCN=C(N)N)C(=O)N[C@@H](CC(C)C)C(=O)O.O=C(O)C(F)(F)F
EC50 (Homo sapiens): 19000 nM | Kd [1]: 300 nM

CC[C@H](C)[C@H](NC(=O)[C@H](Cc1ccc(O)cc1)NC(=O)c1[nH]c2ccc(OCCCCCN)cc2c1CCCCCCN)C(=O)N[C@@H](CC(C)C)C(=O)O
Kd [2]: ~40000 nM
